Measured values taken from paper PMC7481290, “Halogenation as a tool to tune antimicrobial activity of peptoids” (Scientific Reports, 2020).
Converted amounts (≈) assume the structure as drawn. Non-standard residues stand in square brackets, D forms with d. Residues, ends and D or L forms follow the SMILES beside them. Nspe = C[C@H](NCC(=O)O)c1ccccc1; Nlys = NCCCCNCC(=O)O

Experiments:
[1] = test system: Methicillin-resistant S. epidermidis ET-024; format: cell-based, Staphylococcus epidermidis; details: Table 2; MRSE ET-024
Summary of the method: (§1)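 Broth microdilution per CLSI in MHB II, final inoculum 5 × 10^5 CFU/mL, with twofold peptoid dilutions. Incubation was 18 h at 37 °C in ambient air. MIC was taken as the lowest concentration without visible growth, from two experiments on different days in technical triplicate.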

[2] = test system: Methicillin-resistant S. epidermidis ATCC 51625; format: cell-based, Staphylococcus epidermidis; details: Table 2; MRSE ATCC 51625
Summary of the method: as §1

E. coli ATCC 25922 = format: cell-based, Escherichia coli; details: Table 2; E. coli ATCC 25922
Summary of the method: as §1

S. aureus ATCC 25923 = format: cell-based, Staphylococcus aureus; details: Table 2; S. aureus ATCC 25923
Summary of the method: as §1

[3] = test system: Methicillin-resistant S. aureus USA 300; format: cell-based, Staphylococcus aureus; details: Table 2; MRSA USA 300
Summary of the method: as §1

HaCaT cell line = format: cell-based, human; details: 1 h exposure, MTS/PMS assay; interval in brackets
Procedure: An immortalized human keratinocytes (HaCaT) cell line (Gift from David G. Naym at Bispebjerg Hospital) were cultured to ∼90% confluence after 21–25 h of growth at 5% CO2 and 37 °C as previously. In brief, the cells were cultured in Dulbecco’s Modified Eagle’s Medium supplemented with 10% (v/v) fetal bovine serum, penicillin (100 IU/mL), and streptomycin (100 μg/mL), purchased from Sigma-Aldrich (St. Louis, MO, United States).
Cell viability assessment was performed on cell monolayers grown to ∼90% confluence in 96-well plates Corning Costar (Sigma-Aldrich, Brøndby, Denmark) by using the MTS/PMS assay as previously described. Briefly, the adhered cells were washed with 37 °C PBS solution (ThermoFisher Scientific, Roskilde) and exposed for 1 h at 37 °C to 100 μL of peptoids dissolved in the medium also used for culturing of the cell line (at concentrations in the range 0–1,000 μg/mL). The precise exposure-time were selected to enable comparison with related peptoid compounds[21],[35]. […] A plate reader (SpectraMax i3X; Molecular devices, San Jose, CA) was used to measure the absorbance at 492 nm. The relative viability was calculated by using 0.2% (w/v) sodium dodecyl sulfate (SDS) as the positive control, while cells exposed to medium without test compound were used as the negative control. […]

[4] = test system: P. aeruginosa PA01 (H103); format: cell-based, Pseudomonas aeruginosa; details: Table 2; P. aeruginosa PA01 H103
Summary of the method: as §1

`C[C@@H](c1ccccc1)N(CC(N)=O)C(=O)CN(C(=O)CN(CCCCN)C(=O)CN(C(=O)CN(C(=O)CN(CCCCN)C(=O)CN(C(=O)CN(C(=O)CN(CCCCN)C(=O)CN(C(=O)CN(C(=O)CNCCCCN)[C@@H](C)c1ccccc1)[C@@H](C)c1ccccc1)[C@@H](C)c1ccccc1)[C@@H](C)c1ccccc1)[C@@H](C)c1ccccc1)[C@@H](C)c1ccccc1)[C@@H](C)c1ccccc1` [Peptoid 1, reference compound] (H-[Nlys][Nspe][Nspe][Nlys][Nspe][Nspe][Nlys][Nspe][Nspe][Nlys][Nspe][Nspe]-NH2) was tested, and the “MIC MRSE^c” value [1] was 4 µg/mL (≈ 2.2 µM), the “MIC MRSE^d” value [2] was 8 µg/mL (≈ 4.4 µM) and the “MIC EC^e” value (E. coli ATCC 25922) was 8 µg/mL (≈ 4.4 µM). The “MIC SA^a” value (S. aureus ATCC 25923) was 8 µg/mL (≈ 4.4 µM), the “MIC MRSA^b” value [3] was 8 µg/mL (≈ 4.4 µM) and the “IC50 towards HaCaT cell line” value (HaCaT cell line) was 35.0 (30.9 to 39.9) μg/mL. The “MIC PA^f” value [4] was 16 µg/mL (≈ 8.79 µM).
